# Data published in patent US9345389B2, “Additional systems and methods for providing real-time anatomical guidance in a diagnostic or therapeutic procedure” (EMORY UNIVERSITY, priority 2010, dated 2016).
# Columns and labels:
# [1] = tested on: 4T1 breast tumors; assay: In vivo and intra-operative tumor detection with handheld spectroscopic pen device; design: species or system mouse; conditions: ICG 357 μg/kg i.v.
# Procedure: All in vivo murine studies were performed under an approved protocol by the Emory University IACUC. The mouse mammary carcinoma cell line 4T1, which stably expresses a firefly luciferase gene, was obtained from Dr. Lily Yang at Emory University (Atlanta, Ga.). 4T1 cells were cultured in DMEM containing 10% FBS and 1× antibiotic/antimycotic agent. Prior to injection into mice, the cells were washed two times with PBS and diluted in sterile PBS to a final concentration of 2×10^7 cells/mL. Mammary tumors were inoculated into nude mice by the subcutaneous administration of 2×10^6 4T1 cells into the mouse flank. Once the tumors were approximately 4 mm in diameter, ICG was administered intravenously (i.v.) via a tail vein at a dose of 357 μg/kg. After 24 h, mice were anesthetized by intraperitoneal (i.p.) injection of a 2.5% solution of tribromoethanol (350 mg/kg). Tumor-bearing mice undergoing bioluminescence imaging were administered i.p. 100 μL, of a luciferin solution (30 mg/mL). Bioluminescent images were acquired on a Kodak In-Vivo FX Imaging System from Carestream Molecular Imaging (Rochester, N.Y.). Corresponding bright-field images were taken for anatomical reference of the bioluminescence signal. A series of spectra were acquired on tumor-bearing mice using the handheld spectroscopic pen device. First, the position of the handheld spectroscopic pen device was fixed to about 1-2 cm above the location of the acquisition area on the mouse. Spectra were collected in 1 s and were obtained from several locations, including directly over the center of the tumor and the peritumoral region. After the spectra were acquired, the integrated signal intensity was calculated. The signal intensity was compared to both the bright-field anatomical location and the bioluminescence signal.
# In vivo investigations were conducted to test the ability of the handheld spectroscopic pen device to detect intratumoral deposition of ICG after intravenous infusion. This contrast agent has been approved by the U.S. Food and Drug Administration (FDA) and is indicated for various uses in humans, such as for determining cardiac output, hepatic function and liver blood flow, and for ophthalmic angiography. To assess degree of tumor contrast enhancement using ICG, mice were used in which 4T1 tumor cells (2×10^6 in number) were subcutaneously injected 18 days prior to imaging. The tumor cells were genetically engineered to express the firefly luciferase gene; intravenous injection of luciferin after tumor development causes these cells to emit bioluminescent light and allows one to determine the precise location of tumors using bioluminescence imaging. […]
# [2] = tested on: polyps; assay: Detection of murine GI polyps (Apcmin/+ FAP model) with SpectroPen; type: in vivo, mouse
# Procedure: This example describes the detection of polyps in the murine FAP model, Apcmin/+. This study was conducted in two mice. Two mice were injected with 2 mg/kg ICG. One mouse received ICG intravenously via a tail vein. The other mouse was administered ICG intraperitoneally. After ICG had circulated for 20 h, the mice were euthanized, the lower GI was removed, washed extensively, sectioned roughly into four segments; duodenum, jejunum, ilium, and cecum and colon, and formalin fixed. The mice were then imaged using the integrated imaging and spectroscopy imaging system as provided in this disclosure.
# Intestinal segments were rinsed with PBS. […] Next the “SpectroPen” handheld probe was placed 1 cm above the intestinal tissue and clamped into that position for consistent repetitive acquisitions. The 1 cm space between the SpectroPen and the tissue correlates roughly to a 1 mm laser spot size. • 3. Spectra were acquired and recorded from apparently healthy sections of the intestine (considered background signal), and polyps. An integration time of 1 s was utilized. • 4.
# [3] = stated as known; cited from earlier work
# [4] = after intravenous administration, bound to serum proteins; cited from earlier work
# [5] = Optical properties of ICG; type: physicochemical; conditions: 785 nm excitation
# Text: The ability of the handheld spectroscopic pen device to differentiate contrast agent signals from the autofluorescence and Raman scattering of major tissue/organ types (i.e. fat, liver and lung) was first examined. […] At 785 nm excitation, ICG has a fluorescence peak at 816 nm, while fat has a background fluorescence peak at 805 nm plus resolvable Raman signals at 862, 1070, 1297, 1439, and 1652 cm^−1 (corresponding to 842, 857, 874, 885, and 902 nm in wavelength, respectively). ICG buried in fat has identifiable contributions of both ICG and fat (e.g., ICG fluorescence at 816 nm and the fat Raman peaks at 874 and 885 nm).
# [6] = Inspection of internal organs and behavior for toxicity in Apcmin/+ mice
# Procedure: This study was conducted in two mice. Two mice were injected with 2 mg/kg ICG. One mouse received ICG intravenously via a tail vein. The other mouse was administered ICG intraperitoneally. After ICG had circulated for 20 h, the mice were euthanized, the lower GI was removed, washed extensively, sectioned roughly into four segments; duodenum, jejunum, ilium, and cecum and colon, and formalin fixed. The mice were then imaged using the integrated imaging and spectroscopy imaging system as provided in this disclosure.
# Since these doses were at the maximum recommended dose, the internal organs were briefly inspected for any aberrant signs of toxicity.
smiles,measurement,setting,value
"CC1(C)C(/C=C/C=C/C=C/C=C2\N(CCCCS(=O)(=O)O)c3ccc4ccccc4c3C2(C)C)=[N+](CCCCS(=O)(=O)[O-])c2ccc3ccccc3c21 [ICG, Indocyanine green]",signal of excised tumors vs surgical cavity,[1]; after surgical removal,10 fold
same,"integrated signal intensity, tumor areas vs normal regions","[1]; mice with 4T1 tumors, 24 h",~10 times
same,signal at adjacent edges (less than 2 mm from the tumor) vs more remote areas,"[1]; mice with 4T1 tumors, 24 h",5-6 times
same,ICG signal at positive surgical margin vs adjacent tissue,[1]; residual tumor at margin of cavity,5 times
same,ICG signal in polyps vs background,"[2]; 2 mg/kg ICG intraperitoneally, 20 h, GI tract ex vivo",greater than in the background
same,ICG signal in polyps vs background tissue,"[2]; 2 mg/kg ICG intravenously, 20 h, GI tract ex vivo",higher signal in polyps then in the background tissue
same,"signal in GI tract, i.p. vs i.v. route","[2]; 2 mg/kg ICG, 20 after injection",larger signal in the GI tract compared to mouse injected i.v.
same,signal from colon polyp compared to background,"[2]; Apcmin/+ mouse, colon, 2 mg/kg ICG i.v., 20 h",≥ 5 fold
same,route of excretion,[3],secreted entirely into bile
same,hydrodynamic size (diameter) after protein binding,[4],6-8 nm
same,fluorescence peak,[5],816 nm
same,appearance of internal organs,"[6]; 2 mg/kg ICG intraperitoneally, 20 h, patent attributes to anemia from polyps","pale color was immediately noticed, especially in the liver and kidneys"
same,behavioral changes,[6]; 2 mg/kg ICG via tail vein,no dramatic behavioral changes
